Data set [1] has as its system splenic B cell and T cell populations. The experiment in a line: Wild type mouse study, spleen immunophenotyping by flow cytometry. The settings on record: FIG. 21.
Data set [2] relates to total peripheral blood B-cells from healthy donors differentiating to plasmablasts and plasma cells.
In the next data set the target is T1, CD20 (Homo sapiens, UniProt P11836).
T1 construct: host or cells: B cells of patients in vivo
T1 sequence (P11836 1-297): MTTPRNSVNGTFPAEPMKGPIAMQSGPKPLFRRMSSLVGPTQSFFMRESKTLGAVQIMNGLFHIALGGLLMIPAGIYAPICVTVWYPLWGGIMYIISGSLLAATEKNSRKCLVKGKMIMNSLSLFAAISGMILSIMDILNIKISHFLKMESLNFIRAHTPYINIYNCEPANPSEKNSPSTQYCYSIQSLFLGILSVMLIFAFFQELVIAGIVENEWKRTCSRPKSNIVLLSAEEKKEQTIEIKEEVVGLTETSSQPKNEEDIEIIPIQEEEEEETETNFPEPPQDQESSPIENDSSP
The settings on record: Arnold et al., 2017; Khellaf et al., 2014; cited from earlier work.

For the compound `O=C(CCCN1CCC(O)(c2ccc(Cl)cc2)CC1)c1ccc(F)cc1` [Haloperidol, haloperidol], the “Activated T cells (B220+TCR-β+) in spleen compared to control” value in data set [1] was “also modestly apparent”.
For `Clc1ccc2c(c1)N=C(N1CCNCC1)c1ccccc1N2` [Norclozapine, norclozapine], the “Direct toxicity to differentiating B-cells” value in data set [2] was “no direct toxicity effect”.
Consider rituximab, for which the “Patients with ITP in whom platelet count improved” value with CD20 is roughly 60%.
